Assay results published in ChEMBL document CHEMBL2176976, “Ethylenediamine diacetate (EDDA) mediated synthesis of aurones under ultrasound: their evaluation as inhibitors of SIRT1” (Bioorg Med Chem Lett, 2012).

How the values were obtained:
MDA-MB-231 = assay: Cytotoxicity against human MDA-MB-231 cells assessed as growth inhibition at 10 uM after 24 hrs by MTT assay (reference value: 0.23 %); format: functional; settings: MDA-MB-231, 24 h, read-out: GI
MCF7 = assay: Cytotoxicity against human MCF7 cells assessed as growth inhibition at 10 uM after 24 hrs by MTT assay (reference value: 0.15 %); format: functional; settings: MCF7, 24 h, read-out: GI
[1] = target: T1, NAD-dependent protein deacetylase sirtuin-1 (Homo sapiens) (UniProt Q96EB6); assay: Inhibition of full length recombinant human SIRT1 expressed in Escherichia coli BL21 (DE3) PLysS using Fluor-de-Lys as substrate at 10 uM by fluorimetric assay
T1 sequence (whole entry): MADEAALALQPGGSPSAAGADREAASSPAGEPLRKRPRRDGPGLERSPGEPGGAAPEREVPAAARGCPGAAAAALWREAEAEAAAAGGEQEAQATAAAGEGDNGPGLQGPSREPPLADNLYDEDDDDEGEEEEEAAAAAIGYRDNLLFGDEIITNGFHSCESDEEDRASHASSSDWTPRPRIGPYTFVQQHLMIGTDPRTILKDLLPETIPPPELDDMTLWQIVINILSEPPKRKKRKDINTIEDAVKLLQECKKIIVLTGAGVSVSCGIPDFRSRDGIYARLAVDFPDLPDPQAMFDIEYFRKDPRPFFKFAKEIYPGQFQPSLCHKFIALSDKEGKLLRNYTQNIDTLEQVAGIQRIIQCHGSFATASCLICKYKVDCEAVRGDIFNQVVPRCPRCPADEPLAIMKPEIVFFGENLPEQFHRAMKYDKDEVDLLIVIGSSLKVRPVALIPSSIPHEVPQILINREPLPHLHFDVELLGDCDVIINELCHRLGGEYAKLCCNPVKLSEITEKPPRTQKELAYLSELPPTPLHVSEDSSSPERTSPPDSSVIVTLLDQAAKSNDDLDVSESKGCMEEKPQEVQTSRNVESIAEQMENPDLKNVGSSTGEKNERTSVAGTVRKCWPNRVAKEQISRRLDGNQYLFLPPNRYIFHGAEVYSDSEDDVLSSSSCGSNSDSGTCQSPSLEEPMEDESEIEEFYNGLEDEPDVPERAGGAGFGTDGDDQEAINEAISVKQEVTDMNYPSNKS

[2] = target: T2, NAD-dependent protein deacetylase sirtuin-2 (Homo sapiens, UniProt Q8IXJ6); assay: Inhibition of human SIRT2
T2 sequence (Q8IXJ6 whole entry): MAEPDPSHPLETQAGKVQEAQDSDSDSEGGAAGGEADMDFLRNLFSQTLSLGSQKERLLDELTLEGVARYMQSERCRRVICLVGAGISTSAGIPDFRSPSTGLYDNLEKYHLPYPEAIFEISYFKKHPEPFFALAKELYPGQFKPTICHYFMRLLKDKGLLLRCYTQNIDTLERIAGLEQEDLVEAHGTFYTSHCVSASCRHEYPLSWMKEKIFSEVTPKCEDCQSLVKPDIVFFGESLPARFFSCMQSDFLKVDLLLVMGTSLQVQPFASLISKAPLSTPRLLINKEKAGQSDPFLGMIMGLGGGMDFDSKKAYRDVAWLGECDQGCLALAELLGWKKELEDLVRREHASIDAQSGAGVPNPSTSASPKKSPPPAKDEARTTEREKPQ

SMILES | inhibition of growth at 10 µM (MDA-MB-231) [%] | inhibition of growth at 10 µM (MCF7) [%] | inhibition [1] [%] | IC50 [2] [µM]
Cc1ccc(C(=O)Nc2ccc(S(=O)(=O)O)c3cc(S(=O)(=O)O)cc(S(=O)(=O)O)c23)cc1NC(=O)c1cccc(NC(=O)Nc2cccc(C(=O)Nc3cc(C(=O)Nc4ccc(S(=O)(=O)O)c5cc(S(=O)(=O)O)cc(S(=O)(=O)O)c45)ccc3C)c2)c1 [SURAMIN] | 26 | 32 |  | 
COc1ccc(/C=C2\Oc3ccccc3C2=O)cc1 [4'-METHOXY-AURONE] | 18.1 | 29.6 | 32.5 | 
O=C1/C(=C/c2ccc(Br)cc2)Oc2ccccc21 | 30.8 | 34.5 | 71 | 
O=C1/C(=C/c2ccc(F)cc2)Oc2ccccc21 | 16.5 | 20.1 | 50.5 | 
O=C1NC(=S)NC(=O)C1=Cc1cccc2ccccc12 |  |  |  | 10
